For two compounds, Activity, Cp and PPB results are on record in ChEMBL document CHEMBL1137440, “Kinesin spindle protein (KSP) inhibitors. Part 6: Design and synthesis of 3,5-diaryl-4,5-dihydropyrazole amides as potent inhibitors of the mitotic kinesin KSP” (Bioorg Med Chem Lett, 2007).

Active and inactive are the calls of the source. No cut-off for these calls is given here.

For assay [1], the species on record is Canis familiaris. As to the kind of experiment: Induction of drug-induced QTc prolongation in dog cardiovascular model at 40 uM. It is filed as functional, organism-based. As to conditions: Canis lupus familiaris, Heart.
Assay [2] concerns Plasma. Nature of the assay: Drug level in A2780 cell bearing mouse plasma at 3 mg/kg, po. It is filed as functional, organism-based. Details: dose 3 mg/kg.
In the next assay the test system is A2780. Nature of the assay: Mitotic arrest in A2780 cells bearing mouse at 3 mg/kg after 22 hrs by phospho-Histone immunohistochemistry assay. Format: functional, organism-based. Details: dose 3 mg/kg.
In assay [3] the test system is Plasma. Nature of the assay: Drug level in A2780 cells bearing mouse plasma, po. It is filed as functional.
Assay [4] concerns Plasma. Nature of the assay: Protein binding in mouse plasma. It is filed as functional, cell-free.
The test system of assay [5] is Plasma. Nature of the assay: Protein binding in human plasma. Format: functional, cell-free.
The species entered for assay [6] is Canis familiaris. As to the kind of experiment: Induction of drug-induced QTc prolongation in dog cardiovascular model at less than 10 uM. Format: functional, organism-based. As to conditions: Canis lupus familiaris; Heart.

On to `CC(=O)N1N=C(c2cc(F)ccc2F)C[C@@]1(C[C@H](F)CN)c1ccccc1`, for which the result in the assay listed under Canis familiaris [1] was inactive. In the assay on Plasma [2], this compound registered a Cp of 38 nM. Besides, the outcome in the assay with A2780 was Active.

For `CC(=O)N1CCN(CCC[C@@]2(c3ccccc3)CC(c3cc(F)ccc3F)=NN2C(C)=O)CC1`, in the assay on Plasma [3], the Cp turned out to be 56 nM. The PPB was found to be 92% with Plasma [4] and 91% with Plasma [5]. For the same compound, the result in the assay listed under Canis familiaris [6] was Active.
